Where two headings read alike, the source gives them in different places.
How the values were obtained:
Experiment in all cases: hOR assay (GloSensor cAMP luciferase), dose-response
Type in all cases: cell-based
OR5K1 = target: T1, OR5K1 (Homo sapiens, UniProt Q8NHB7)
T1 construct: Lucy tag (N); FLAG (N); Rho tag (N); expressed in transfected cells; host or cells: Flp-In T-REx-293 cells stably expressing RTP1S, Gαolf and Ric8-b
T1 sequence (Q8NHB7 1-308): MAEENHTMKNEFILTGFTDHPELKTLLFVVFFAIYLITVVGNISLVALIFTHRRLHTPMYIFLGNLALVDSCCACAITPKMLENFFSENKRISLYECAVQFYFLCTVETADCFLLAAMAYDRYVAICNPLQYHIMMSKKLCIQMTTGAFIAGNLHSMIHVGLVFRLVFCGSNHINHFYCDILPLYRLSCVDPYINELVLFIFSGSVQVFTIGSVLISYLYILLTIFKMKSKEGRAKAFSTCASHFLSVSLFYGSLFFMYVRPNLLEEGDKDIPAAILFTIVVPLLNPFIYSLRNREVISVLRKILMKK

OR10A2 = target: T2, OR10A2 (Homo sapiens, UniProt Q9H208); conditions: OR10A2, with or without the TAR-Tat system
T2 construct: Lucy tag (N); expressed in transfected cells; host or cells: Flp-In T-REx-293 cells stably expressing RTP1S, Gαolf and Ric8-b
T2 sequence (Q9H208 1-303): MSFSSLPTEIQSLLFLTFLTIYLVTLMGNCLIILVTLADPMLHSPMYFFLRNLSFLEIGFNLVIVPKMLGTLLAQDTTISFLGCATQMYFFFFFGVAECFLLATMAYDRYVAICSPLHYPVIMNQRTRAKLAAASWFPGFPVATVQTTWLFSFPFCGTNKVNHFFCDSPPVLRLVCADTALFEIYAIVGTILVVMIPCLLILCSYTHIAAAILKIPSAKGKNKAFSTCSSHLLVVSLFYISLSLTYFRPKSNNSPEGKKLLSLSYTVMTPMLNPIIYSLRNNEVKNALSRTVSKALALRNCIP

OR8B8 = target: T3, OR8B8 (Homo sapiens, UniProt Q15620); conditions: OR8B8, with or without the TAR-Tat system
T3 construct: Lucy tag (N); FLAG (N); Rho tag (N); expressed in transfected cells; host or cells: Flp-In T-REx-293 cells stably expressing RTP1S, Gαolf and Ric8-b
T3 sequence (Q15620 1-311): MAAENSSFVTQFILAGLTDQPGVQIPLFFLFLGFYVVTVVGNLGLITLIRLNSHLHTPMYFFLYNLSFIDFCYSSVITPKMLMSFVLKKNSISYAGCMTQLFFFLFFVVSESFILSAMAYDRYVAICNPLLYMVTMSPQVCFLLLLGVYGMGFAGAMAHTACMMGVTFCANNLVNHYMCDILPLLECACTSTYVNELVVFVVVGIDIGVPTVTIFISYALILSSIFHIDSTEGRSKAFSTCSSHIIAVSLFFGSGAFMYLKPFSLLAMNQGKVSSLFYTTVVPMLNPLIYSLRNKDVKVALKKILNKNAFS

OR2M3 = target: T4, OR2M3 (Homo sapiens, UniProt Q8NG83)
T4 construct: Lucy tag (N); expressed in transfected cells; host or cells: Flp-In T-REx-293 cells stably expressing RTP1S, Gαolf and Ric8-b
T4 sequence (Q8NG83 1-312): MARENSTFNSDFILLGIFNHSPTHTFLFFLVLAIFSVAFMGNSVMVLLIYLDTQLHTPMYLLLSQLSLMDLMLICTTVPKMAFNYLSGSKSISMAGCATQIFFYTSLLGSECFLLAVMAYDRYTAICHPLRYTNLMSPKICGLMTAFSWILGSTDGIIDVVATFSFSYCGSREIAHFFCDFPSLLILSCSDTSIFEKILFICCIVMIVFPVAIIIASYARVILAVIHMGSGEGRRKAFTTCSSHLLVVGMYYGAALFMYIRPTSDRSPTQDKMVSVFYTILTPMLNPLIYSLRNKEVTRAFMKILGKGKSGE

OR5P3 = target: T5, OR5P3 (Homo sapiens, UniProt Q8WZ94); conditions: for EC50: read-out: EC50 of n-hexanal concentration-response relationship
T5 construct: Lucy tag (N); FLAG (N); Rho tag (N); expressed in transfected cells; host or cells: Flp-In T-REx-293 cells stably expressing RTP1S, Gαolf and Ric8-b
T5 sequence (Q8WZ94 1-311): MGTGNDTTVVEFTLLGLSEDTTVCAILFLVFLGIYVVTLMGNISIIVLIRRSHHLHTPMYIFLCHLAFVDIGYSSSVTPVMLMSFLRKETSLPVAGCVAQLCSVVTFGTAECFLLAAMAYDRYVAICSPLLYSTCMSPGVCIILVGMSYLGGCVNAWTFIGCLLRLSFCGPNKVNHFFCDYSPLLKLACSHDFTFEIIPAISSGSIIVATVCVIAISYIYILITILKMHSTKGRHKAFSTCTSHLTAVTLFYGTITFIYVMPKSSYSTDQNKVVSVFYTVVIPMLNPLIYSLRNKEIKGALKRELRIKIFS

## CCCCCC=O [n-hexanal]
OR5K1; OR5K1, with and without the TAR-Tat system
  concentration-dependent response to n-hexanal: concentration-dependent responses only with the TAR-Tat system
OR5K1; OR5K1/pHEK (with TAR-Tat system), read-out: EC50 of n-hexanal concentration-response relationship
  EC50: 11 µM
OR10A2
  concentration-dependent response to n-hexanal: no concentration-dependent response
OR8B8
  concentration-dependent response to n-hexanal: no concentration-dependent response
OR2M3; OR2M3/pHEK plasmid
  mode of action on OR2M3: inverse agonist
OR2M3; coadministered with 500 μM 3-mercapto-2-methyl-1-pentanol, OR2M3/pHEK plasmid
  suppression of the active response of OR2M3 to agonist: suppressed in an n-hexanal concentration-dependent manner
OR2M3; with and without the TAR-Tat system
  inhibitory effect on the constitutive activity of OR2M3 (luminescence values): decreased in an n-hexanal concentration-dependent manner only in the case with the TAR-Tat system
OR5P3; OR5P3, with and without the TAR-Tat system
  concentration-dependent response to n-hexanal: Concentration-dependent responses were observed
OR5P3; OR5P3/pBApo (without TAR-Tat system)
  EC50: 191 µM
OR5P3; OR5P3/pHEK (with TAR-Tat system)
  EC50: 672 µM
OR5P3; OR5P3/pHEK versus OR5P3/pBApo
  increase of maximum value of dose-response curve with the TAR-Tat system: 4.1 fold
